Data published in PubChem BioAssay (NCI).
“And” between values parts separate entries of the source, which are not always exact repeats. Equal values may be shown once.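 Protocol summary: plate cells (96-well), add compound at 5 concentrations, incubate 48 h, interpolate endpoints linearly. GI50: concentration for 50% inhibition of growth. TGI: total growth inhibition.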

What was measured:
Assay in all cases: NCI tumour cell line growth inhibition, 48 h
A498 renal = system: A498 renal
A549 NSCLC = system: A549 NSCLC
CAKI-1 renal = system: CAKI-1 renal
CCRF-CEM leukemia = system: CCRF-CEM leukemia
COLO 205 colon = system: COLO 205 colon
DLD-1 colon = system: DLD-1 colon
DMS 273 small cell lung = system: DMS 273 small cell lung
EKVX NSCLC = system: EKVX NSCLC
HCC-2998 colon = system: HCC-2998 colon
HCT-15 colon = system: HCT-15 colon
HL-60(TB) leukemia = system: HL-60(TB) leukemia
HOP-18 NSCLC = system: HOP-18 NSCLC
HOP-62 NSCLC = system: HOP-62 NSCLC
HT29 colon = system: HT29 colon
IGROV1 ovarian = system: IGROV1 ovarian
K-562 leukemia = system: K-562 leukemia
KM12 colon = system: KM12 colon
LOX IMVI melanoma = system: LOX IMVI melanoma
M19-MEL melanoma = system: M19-MEL melanoma
MALME-3M melanoma = system: MALME-3M melanoma
MCF7 breast = system: MCF7 breast
MOLT-4 leukemia = system: MOLT-4 leukemia
NCI-H226 lung = system: NCI-H226 lung
NCI-H23 lung = system: NCI-H23 lung
NCI-H460 lung = system: NCI-H460 lung
NCI-H522 lung = system: NCI-H522 lung
NCI/ADR-RES ovarian = system: NCI/ADR-RES ovarian
OVCAR-3 ovarian = system: OVCAR-3 ovarian
OVCAR-4 ovarian = system: OVCAR-4 ovarian
OVCAR-5 ovarian = system: OVCAR-5 ovarian
P388/ADR leukemia = system: P388/ADR leukemia
RPMI-8226 leukemia = system: RPMI-8226 leukemia
RXF 393 renal = system: RXF 393 renal
SF-268 CNS = system: SF-268 CNS
SF-295 CNS = system: SF-295 CNS
SF-539 CNS = system: SF-539 CNS
SK-MEL-2 melanoma = system: SK-MEL-2 melanoma
SK-MEL-28 melanoma = system: SK-MEL-28 melanoma
SK-MEL-5 melanoma = system: SK-MEL-5 melanoma
SK-OV-3 ovarian = system: SK-OV-3 ovarian
SN12C renal = system: SN12C renal
SN12K1 renal = system: SN12K1 renal
SNB-19 CNS = system: SNB-19 CNS
SNB-75 CNS = system: SNB-75 CNS
SNB-78 CNS = system: SNB-78 CNS
SW-620 colon = system: SW-620 colon
U251 CNS = system: U251 CNS
UACC-257 melanoma = system: UACC-257 melanoma
UACC-62 melanoma = system: UACC-62 melanoma
UO-31 renal = system: UO-31 renal

In the case of `CCC1(OC(=O)CN)C(=O)OCc2c1cc1n(c2=O)Cc2cc3cc4c(cc3nc2-1)OCO4` (stereo not drawn), the GI50 (A498 renal) was 16.1 nM and 38 nM, the TGI (A498 renal) was 78.7 nM and 241 nM and the GI50 (A549 NSCLC) was < 10 nM. The TGI (A549 NSCLC) was 1200 nM and 347 nM, the GI50 (CAKI-1 renal) was < 10 nM and the TGI (CAKI-1 renal) was 171 nM. The GI50 (CCRF-CEM leukemia) was < 10 nM, the GI50 (COLO 205 colon) was 362 nM and 150 nM and the TGI (COLO 205 colon) was 2560 nM and 1780 nM. The GI50 (DLD-1 colon) was 278 nM and 203 nM, the TGI (DLD-1 colon) was 40500 nM and > 100000 nM and the GI50 (DMS 273 small cell lung) was < 10 nM. For the same compound, the TGI (DMS 273 small cell lung) was 65.6 nM and 358 nM, the GI50 (EKVX NSCLC) was 10.6 nM and the TGI (EKVX NSCLC) was 495 nM. For the same compound, the GI50 (HCC-2998 colon) was 101 nM, the TGI (HCC-2998 colon) was 1080 nM and the GI50 (HCT-15 colon) was 126 nM and 48.3 nM. The TGI (HCT-15 colon) was 26800 nM and 10200 nM, the GI50 (HL-60(TB) leukemia) was < 10 nM and the GI50 (HOP-18 NSCLC) was 166 nM and 53.4 nM. The TGI (HOP-18 NSCLC) was 2630 nM and 2240 nM, the GI50 (HOP-62 NSCLC) was < 10 nM and the TGI (HOP-62 NSCLC) was < 10 nM. For the same compound, the GI50 (HT29 colon) was 24.5 nM and 17.1 nM, the TGI (HT29 colon) was 739 nM and 281 nM and the GI50 (IGROV1 ovarian) was 97.5 nM and 36.7 nM. For the same compound, the TGI (IGROV1 ovarian) was 1550 nM and 527 nM, the GI50 (K-562 leukemia) was 51.2 nM and 22.5 nM and the TGI (K-562 leukemia) was > 100000 nM. For the same compound, the GI50 (KM12 colon) was 126 nM and 187 nM, the GI50 (LOX IMVI melanoma) was < 10 nM and the TGI (LOX IMVI melanoma) was 155 nM and 106 nM. For the same compound, the TGI (M19-MEL melanoma) was 1040 nM and 416 nM, the GI50 (MALME-3M melanoma) was 287 nM and the TGI (MALME-3M melanoma) was 1420 nM. The GI50 (MCF7 breast) was < 10 nM, the TGI (MCF7 breast) was > 100000 nM and the GI50 (MOLT-4 leukemia) was < 10 nM. The TGI (MOLT-4 leukemia) was 11.3 nM, the GI50 (NCI-H226 lung) was 24 nM and < 10 nM and the TGI (NCI-H226 lung) was 201 nM and 299 nM. The GI50 (NCI-H23 lung) was < 10 nM, the TGI (NCI-H23 lung) was 119 nM and 33.7 nM and the GI50 (NCI-H460 lung) was < 10 nM. For the same compound, the TGI (NCI-H460 lung) was 15.9 nM and 38.9 nM, the GI50 (NCI-H522 lung) was 53.1 nM and < 10 nM and the TGI (NCI-H522 lung) was 1430 nM and 243 nM. The GI50 (NCI/ADR-RES ovarian) was < 10 nM, the TGI (NCI/ADR-RES ovarian) was 231 nM and 88.9 nM and the GI50 (OVCAR-3 ovarian) was 196 nM and 131 nM. For the same compound, the TGI (OVCAR-3 ovarian) was 1050 nM and 554 nM, the GI50 (OVCAR-4 ovarian) was 216 nM and 57.4 nM and the GI50 (OVCAR-5 ovarian) was < 10 nM. For the same compound, the TGI (OVCAR-5 ovarian) was 114 nM and 219 nM, the GI50 (P388/ADR leukemia) was < 10 nM and the TGI (P388/ADR leukemia) was < 10 nM. For the same compound, the GI50 (RPMI-8226 leukemia) was 25.3 nM and 23.1 nM, the GI50 (RXF 393 renal) was 15.8 nM and the TGI (RXF 393 renal) was 119 nM. The GI50 (SF-268 CNS) was < 10 nM, the TGI (SF-268 CNS) was > 100000 nM and the GI50 (SF-295 CNS) was < 10 nM. The TGI (SF-295 CNS) was 21.1 nM and < 10 nM, the GI50 (SF-539 CNS) was < 10 nM and the TGI (SF-539 CNS) was 16.1 nM and 16.5 nM. The GI50 (SK-MEL-2 melanoma) was 135 nM and 221 nM, the TGI (SK-MEL-2 melanoma) was 3150 nM and 1070 nM and the GI50 (SK-MEL-28 melanoma) was 195 nM and 294 nM. The TGI (SK-MEL-28 melanoma) was 13300 nM and 11800 nM, the GI50 (SK-MEL-5 melanoma) was < 10 nM and the TGI (SK-MEL-5 melanoma) was 75.9 nM. For the same compound, the GI50 (SK-OV-3 ovarian) was < 10 nM, the TGI (SK-OV-3 ovarian) was 174 nM and the GI50 (SN12C renal) was < 10 nM. For the same compound, the TGI (SN12C renal) was 21800 nM and > 100000 nM, the GI50 (SN12K1 renal) was < 10 nM and the TGI (SN12K1 renal) was 225 nM and 1040 nM. For the same compound, the GI50 (SNB-19 CNS) was < 10 nM, the TGI (SNB-19 CNS) was 27300 nM and 3140 nM and the GI50 (SNB-75 CNS) was 20.7 nM and < 10 nM. For the same compound, the GI50 (SNB-78 CNS) was 468 nM, the TGI (SNB-78 CNS) was 81800 nM and the GI50 (SW-620 colon) was 11.6 nM and 16.5 nM. For the same compound, the TGI (SW-620 colon) was > 100000 nM and 10200 nM, the GI50 (U251 CNS) was < 10 nM and the TGI (U251 CNS) was 19.5 nM. For the same compound, the GI50 (UACC-257 melanoma) was < 10 nM and 48.4 nM, the TGI (UACC-257 melanoma) was 281 nM and 603 nM and the GI50 (UACC-62 melanoma) was < 10 nM. For the same compound, the TGI (UACC-62 melanoma) was < 10 nM, the GI50 (UO-31 renal) was < 10 nM and 61.4 nM and the TGI (UO-31 renal) was 151 nM and 400 nM.
